According to the supplement of paper PMC4862054:

Experiments:
Assay in all cases: normalised viability (% of control), CellTiter-Blue; higher = more viable cells (about 100 = DMSO control)
Conditions in all cases: incubation time: 72 h
CAL-148 [1] = test system: CAL-148
Description: (§1)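 DSRT, CellTiter-Blue viability, 72 h incubation. Signal is normalised to DMSO and benzethonium chloride controls. Value is the normalised response at dose 8.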

DU-4475 [2] = test system: DU-4475
Description: as §1

CAL-85-1 [3] = test system: CAL-85-1
Description: as §1

CAL-51 [4] = test system: CAL-51
Description: as §1

MDA-MB-453 [5] = test system: MDA-MB-453
Description: as §1

HDQ-P1 [6] = test system: HDQ-P1
Description: as §1

MDA-MB-231 = test system: MDA-MB-231
Summary of the method: (§2)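 384-well plates were pre-loaded with compound in 5 µl medium before 20 µl of breast cancer cell suspension was seeded. Following 72 h incubation, 2.5 µl CellTiter-Blue reagent was added for 2 h at 37 °C. Fluorescence was read at 560/590 nm and plates were normalised to vehicle (100) and a positive kill control (0), checked by Z'-factor. Normalised viability is reported at a single listed concentration of the series.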

CAL-148 [7] = test system: CAL-148; remark: listed apart in the source
Summary of the method: as §2

MDA-MB-436 = test system: MDA-MB-436
Summary of the method: as §2

CAL-120 = test system: CAL-120
Summary of the method: as §2

BT-474 = test system: BT-474
Summary of the method: as §2

HCC1143 = test system: HCC1143
Summary of the method: as §2

MDA-MB-468 = test system: MDA-MB-468
Summary of the method: as §2

BT-549 = test system: BT-549
Summary of the method: as §2

HCC1599 = test system: HCC1599
Summary of the method: as §2

SK-BR-3 = test system: SK-BR-3
Summary of the method: as §2

DU-4475 [8] = test system: DU-4475; remark: listed apart in the source
Summary of the method: as §2

CAL-85-1 [9] = test system: CAL-85-1; remark: listed apart in the source
Summary of the method: as §2

MFM-223 = test system: MFM-223
Summary of the method: as §2

CAL-51 [10] = test system: CAL-51; remark: listed apart in the source
Summary of the method: as §2

MDA-MB-453 [11] = test system: MDA-MB-453; remark: listed apart in the source
Summary of the method: as §2

Hs578T = test system: Hs578T
Summary of the method: as §2

HDQ-P1 [12] = test system: HDQ-P1; remark: listed apart in the source
Summary of the method: as §2

CAL-148 [13] = test system: CAL-148; remark: listed apart in the source
Description: (§3)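 DSRT, CellTiter-Blue viability, 72 h incubation. Signal is normalised to DMSO and benzethonium chloride controls. Value is the normalised response at dose 6.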

CAL-85-1 [14] = test system: CAL-85-1; remark: listed apart in the source
Description: as §3

MDA-MB-453 [15] = test system: MDA-MB-453; remark: listed apart in the source
Description: as §3

C=CC(=O)N1CCC[C@@H](n2nc(-c3ccc(Oc4ccccc4)cc3)c3c(N)ncnc32)C1
Conditions	normalised viability [%]
BT-474, 1 nM	124
BT-474, 100 nM	45.9
BT-474, 1000 nM	42.1
BT-549, 1 nM	96.6
BT-549, 100 nM	109
BT-549, 1000 nM	118
CAL-51 [4], 300 nM	85.5
CAL-51 [10], 0.3 nM	95.9
CAL-51 [10], 3 nM	91
CAL-51 [10], 10 nM	94.3
CAL-85-1 [3], 300 nM	57.1
CAL-85-1 [9], 0.3 nM	87.8
CAL-85-1 [9], 3 nM	84.6
CAL-85-1 [9], 10 nM	96.9
CAL-85-1 [14], 30 nM	96
CAL-120, 1 nM	86.4
CAL-120, 100 nM	86.4
CAL-120, 1000 nM	97
CAL-148 [1], 300 nM	84.6
CAL-148 [7], 0.3 nM	85.8
CAL-148 [7], 3 nM	98.6
CAL-148 [7], 10 nM	96.3
CAL-148 [13], 30 nM	44.8
DU-4475 [2], 300 nM	96.1
DU-4475 [8], 0.3 nM	91.8
DU-4475 [8], 3 nM	87.4
DU-4475 [8], 10 nM	86.8
HCC1143, 1 nM	76
HCC1143, 100 nM	79
HCC1143, 1000 nM	81.8
HCC1599, 1 nM	104
HCC1599, 100 nM	83.3
HCC1599, 1000 nM	82.6
HDQ-P1 [6], 300 nM	87.5
HDQ-P1 [12], 0.3 nM	130
HDQ-P1 [12], 3 nM	106
HDQ-P1 [12], 10 nM	105
Hs578T, 1 nM	123
Hs578T, 100 nM	123
Hs578T, 1000 nM	112
MDA-MB-231, 1 nM	102
MDA-MB-231, 100 nM	101
MDA-MB-231, 1000 nM	111
MDA-MB-436, 1 nM	106
MDA-MB-436, 100 nM	85.8
MDA-MB-436, 1000 nM	94.8
MDA-MB-453 [5], 300 nM	26.9
MDA-MB-453 [11], 0.3 nM	112
MDA-MB-453 [11], 3 nM	92.4
MDA-MB-453 [11], 10 nM	77.3
MDA-MB-453 [15], 30 nM	50.2
MDA-MB-468, 1 nM	99.9
MDA-MB-468, 100 nM	78.3
MDA-MB-468, 1000 nM	69.3
MFM-223, 1 nM	92.1
MFM-223, 100 nM	83
MFM-223, 1000 nM	56.6
SK-BR-3, 1 nM	91.9
SK-BR-3, 100 nM	24.9
SK-BR-3, 1000 nM	21.7

CC(=O)Nc1cccc(-n2c(=O)n(C3CC3)c(=O)c3c(Nc4ccc(I)cc4F)n(C)c(=O)c(C)c32)c1
Conditions	normalised viability [%]
BT-474, 0.25 nM	118
BT-474, 25 nM	111
BT-474, 250 nM	122
BT-549, 0.25 nM	87.6
BT-549, 25 nM	92.3
BT-549, 250 nM	86.2
CAL-51 [4], 75 nM	73.3
CAL-51 [10], 0.075 nM	103
CAL-51 [10], 0.75 nM	89.4
CAL-51 [10], 2.5 nM	84.4
CAL-85-1 [3], 75 nM	38.8
CAL-85-1 [9], 0.075 nM	102
CAL-85-1 [9], 0.75 nM	93.6
CAL-85-1 [9], 2.5 nM	97
CAL-85-1 [14], 7.5 nM	76.2
CAL-120, 0.25 nM	113
CAL-120, 25 nM	68.1
CAL-120, 250 nM	47.6
CAL-148 [1], 75 nM	85.2
CAL-148 [7], 0.075 nM	107
CAL-148 [7], 0.75 nM	96.2
CAL-148 [7], 2.5 nM	96.6
CAL-148 [13], 7.5 nM	90.7
DU-4475 [2], 75 nM	-1.23
DU-4475 [8], 0.075 nM	117
DU-4475 [8], 0.75 nM	59.7
DU-4475 [8], 2.5 nM	10.8
HCC1143, 0.25 nM	124
HCC1143, 25 nM	71
HCC1143, 250 nM	64.6
HCC1599, 0.25 nM	93.1
HCC1599, 25 nM	69.8
HCC1599, 250 nM	50.1
HDQ-P1 [6], 75 nM	47.9
HDQ-P1 [12], 0.075 nM	112
HDQ-P1 [12], 0.75 nM	98.3
HDQ-P1 [12], 2.5 nM	99.3
Hs578T, 0.25 nM	129
Hs578T, 25 nM	84.8
Hs578T, 250 nM	83
MDA-MB-231, 0.25 nM	101
MDA-MB-231, 25 nM	39.6
MDA-MB-231, 250 nM	38.7
MDA-MB-436, 0.25 nM	104
MDA-MB-436, 25 nM	97.8
MDA-MB-436, 250 nM	95
MDA-MB-453 [5], 75 nM	72.8
MDA-MB-453 [11], 0.075 nM	107
MDA-MB-453 [11], 0.75 nM	113
MDA-MB-453 [11], 2.5 nM	128
MDA-MB-453 [15], 7.5 nM	99.6
MDA-MB-468, 0.25 nM	110
MDA-MB-468, 25 nM	92.6
MDA-MB-468, 250 nM	74.7
MFM-223, 0.25 nM	98.8
MFM-223, 25 nM	84.5
MFM-223, 250 nM	64.4
SK-BR-3, 0.25 nM	111
SK-BR-3, 25 nM	111
SK-BR-3, 250 nM	97.7

CCc1cncnc1N1CCN(Cc2nc3ccc(C(F)(F)F)cc3[nH]2)CC1
Conditions	normalised viability [%]
BT-474, 10 nM	115
BT-474, 1000 nM	118
BT-474, 10000 nM	83.7
BT-549, 10 nM	78.4
BT-549, 1000 nM	102
BT-549, 10000 nM	59.9
CAL-51 [4], 3000 nM	88.9
CAL-51 [10], 3 nM	94.3
CAL-51 [10], 30 nM	90
CAL-51 [10], 100 nM	91.5
CAL-85-1 [3], 3000 nM	100
CAL-85-1 [9], 3 nM	102
CAL-85-1 [9], 30 nM	97.4
CAL-85-1 [9], 100 nM	101
CAL-85-1 [14], 300 nM	89.8
CAL-120, 10 nM	104
CAL-120, 1000 nM	135
CAL-120, 10000 nM	132
CAL-148 [1], 3000 nM	104
CAL-148 [7], 3 nM	119
CAL-148 [7], 30 nM	95.8
CAL-148 [7], 100 nM	114
CAL-148 [13], 300 nM	107
DU-4475 [2], 3000 nM	100
DU-4475 [8], 3 nM	103
DU-4475 [8], 30 nM	91.6
DU-4475 [8], 100 nM	107
HCC1143, 10 nM	103
HCC1143, 1000 nM	106
HCC1143, 10000 nM	109
HCC1599, 10 nM	77.2
HCC1599, 1000 nM	83
HCC1599, 10000 nM	90.2
HDQ-P1 [6], 3000 nM	108
HDQ-P1 [12], 3 nM	116
HDQ-P1 [12], 30 nM	108
HDQ-P1 [12], 100 nM	108
Hs578T, 10 nM	95.4
Hs578T, 1000 nM	122
Hs578T, 10000 nM	88.8
MDA-MB-231, 10 nM	96.9
MDA-MB-231, 1000 nM	98.2
MDA-MB-231, 10000 nM	106
MDA-MB-436, 10 nM	107
MDA-MB-436, 1000 nM	106
MDA-MB-436, 10000 nM	91.7
MDA-MB-453 [5], 3000 nM	88.7
MDA-MB-453 [11], 3 nM	101
MDA-MB-453 [11], 30 nM	110
MDA-MB-453 [11], 100 nM	103
MDA-MB-453 [15], 300 nM	101
MDA-MB-468, 10 nM	107
MDA-MB-468, 1000 nM	108
MDA-MB-468, 10000 nM	103
MFM-223, 10 nM	103
MFM-223, 1000 nM	122
MFM-223, 10000 nM	82.7
SK-BR-3, 10 nM	105
SK-BR-3, 1000 nM	104
SK-BR-3, 10000 nM	117
